In publication PMC7377239, “Cardiovascular Effects of Polychlorinated Biphenyls and Their Major Metabolites” (Environmental Health Perspectives, 2020):
Where two headings read alike, the source gives them in different places.

Tests used:
[1] = system: HUVECs; experiment: Tube formation (tubulogenesis) assay in HUVECs, 18 h; assay type: cell-based, human; conditions: Homo sapiens, HUVEC, 18 h, HUVECs; for activity at 0.1 µM: 0.10 µM; for minimal effective concentration: top concentration 100.00 µM
Protocol: Similar to the cultivation of iCell®-endothelial cells, HUVEC maintenance and experimentation are detailed elsewhere ([Iwata et al. 2017]). Briefly, HUVECs were thawed, seeded, and grown in T75 tissue culture flasks in Medium 199 with EGM™-2 BulletKits™. HUVECs were incubated at regular cell culture conditions, 37°C and 5% CO2 , and passaged every 2–3 d using TrypLE™ Express. To ensure adequate endothelial function, experiments were performed with cells between passages 1 and 5.
(§1) Tube formation assays were performed on Geltrex™ LDEV-free reduced growth factor basement membrane using both iCell®-endothelial cells and HUVECs in 384-well format exactly as detailed in Iwata et al. ([2017]). Negative controls included media-only and vehicle control (i.e., 0.5% vol/vol DMSO in cell culture media) wells. Positive assay controls were consistent with previously published reports ([Iwata et al. 2017]) and included TAB ( 50μM ) as a cytotoxic control, and nocodazole ( 0.01–1μM ), suramin ( 0.5–50μM ), histamine ( 0.1–100μM ), and chloroquine ( 1–500μM ) as chemicals associated with specific effects on ECs. Each test chemical was screened in triplicate for each concentration. Briefly, for iCell®-endothelial cells, starvation media consisted of VascuLife® basal medium with 4 mM L-glutamine LifeFactor and 0.1% iCell®-endothelial cells medium supplement. To counter dilution effects, a 2× concentration of the HUVEC maintenance medium supplemented with additional VEGF was created (EGM™-2 BulletKits™ at 2× concentration; also the VEGF component was replaced with 12.5 ng/mL VEGF). Geltrex™ LDEV-free reduced growth factor basement membrane was thawed overnight and dispensed into 384-well plates ( 10μL/well ) with tapping and rotating to evenly coat. The plates were incubated for 1 h in a cell culture incubator at 37°C and 5% CO2 . A 2× PCB plate (containing all of the PCBs and metabolites in dose–response) was prepared in basal media and added, 25μL per well, to the Geltrex™ coated plates. On separate plates, cells were seeded 7,500 (iPSC- ECs) or 3,500 (HUVEC) cells/well. Cells were exposed to chemicals overnight at 37°C and 5% CO2 and stained with 3× concentration of calcein AM ( 25μL /well, 6μmol/L ) for 15 min before imaging. Images were captured at 4× magnification with the FITC filter (calcein AM). Images were analyzed with the angiogenesis module software within MetaXpress™ (Molecular Devices).
(§2) Phenotypic responses were quantitatively assessed using concentration–response modeling as detailed elsewhere ([Sirenko et al. 2017]). Briefly, phenotypic readouts were normalized to vehicle controls and fit to a four-parameter logistic model in R studio software (version 3.1.1; R Development Core Team). Following EPA guidance on dose–response modeling, a cutoff of one standard deviation across means of vehicle control (i.e., 0.5% vol/vol DMSO in cell culture media) wells was applied to determine the point-of-departure (POD) values ([U.S. EPA 2012]). In the absence of a concentration–response, the highest tested concentration (i.e., 100μM ) was assigned as “no observable adverse effect level.” The concentration–response assessment R script, as well as templates for vehicle and concentration–response data, are available as a supplement to Sirenko et al. ([2017]). The ability of physicochemical properties to predict differences in PODs were evaluated by multiregression and mixed-effects modeling using R.

[2] = system: iCell endothelial cells (human iPSC-derived ECs); experiment: Tube formation (tubulogenesis) assay in iCell endothelial cells, 18 h; assay type: cell-based; conditions: Homo sapiens, Endothelial cell, iPSC-EC tube formation, 18 hr; for activity at 0.1 µM: 0.10 µM; for minimal effective concentration: top concentration 100.00 µM
Protocol: The culture conditions of iCell®-endothelial cells were as reported elsewhere ([Iwata et al. 2017]). Briefly, T75 flasks were coated with a fibronectin solution ( 3 μg/cm^2 ) followed by incubation for 1–2 h. Cells were thawed for 3 min in a 37°C water bath. Thawed cells were added to maintenance medium made of VascuLife VEGF Medium Complete Kit, excluding the supplied FBS, and iCell® Endothelial Cells Medium Supplement. The final formulation of the maintenance medium is detailed in ([Iwata et al. 2017]). The aliquoted fibronectin solution was aspirated from the T75 flasks, and cells were seeded at 1.0×10^4 cells/cm^2 . Cells were maintained at 37°C and 5% CO2 with media changes occurring every 2 d and passaged every 3–4 d using TrypLE™ Express. All experiments were conducted on cells between passages 1 and 5.
as §1, §2

[3] = 0.00 µM = 100.00, read-out: huvec.mtl.18hr
[4] = 0.00 µM = 100.00, read-out: huvec.tlps.18hr
[5] = 0.00 µM = 100.00, read-out: huvec.tta.18hr
[6] = 0.00 µM = 100.00, read-out: huvec.ttl.18hr
[7] = 0.00 µM control = 100.00, read-out: endo.mtl.18hr
[8] = 0.00 µM control = 100.00, read-out: endo.tlps.18hr
[9] = 0.00 µM control = 100.00, read-out: endo.tta.18hr
[10] = 0.00 µM control = 100.00, read-out: endo.ttl.18hr

Oc1ccccc1-c1ccc(Cl)cc1 [2'-OH PCB3]
activity at 0.01 µM [1, 3]: 96%
activity at 0.01 µM [1, 4]: 85.8%
activity at 0.01 µM [1, 5]: 84%
activity at 0.01 µM [1, 6]: 89.1%
activity at 0.1 µM [1, 3]: 77.3%
activity at 0.1 µM [1, 4]: 49.3%
activity at 0.1 µM [1, 5]: 42.9%
activity at 0.1 µM [1, 6]: 47.4%
activity at 1 µM [1, 3]: 95.4%
activity at 1 µM [1, 4]: 65%
activity at 1 µM [1, 5]: 71.9%
activity at 1 µM [1, 6]: 75%
activity at 10 µM [1, 3]: 92.4%
activity at 10 µM [1, 4]: 77.5%
activity at 10 µM [1, 5]: 65.8%
activity at 10 µM [1, 6]: 69.6%
activity at 100 µM [1, 3]: 73.9%
activity at 100 µM [1, 4]: 35.5%
activity at 100 µM [1, 5]: 64%
activity at 100 µM [1, 6]: 49.6%
minimal effective concentration ([1]; read-out: huvec.mtl.18hr POD): 100 µM
minimal effective concentration ([1]; read-out: huvec.tlps.18hr POD): 0.57 µM
minimal effective concentration ([1]; read-out: huvec.tta.18hr POD): 100 µM
minimal effective concentration ([1]; read-out: huvec.ttl.18hr POD): 100 µM
activity at 0.01 µM [2, 7]: 114%
activity at 0.01 µM [2, 8]: 123%
activity at 0.01 µM [2, 9]: 120%
activity at 0.01 µM [2, 10]: 113%
activity at 0.1 µM [2, 7]: 106%
activity at 0.1 µM [2, 8]: 118%
activity at 0.1 µM [2, 9]: 103%
activity at 0.1 µM [2, 10]: 103%
activity at 1 µM [2, 7]: 100%
activity at 1 µM [2, 8]: 102%
activity at 1 µM [2, 9]: 99.3%
activity at 1 µM [2, 10]: 98.8%
activity at 10 µM [2, 7]: 91.1%
activity at 10 µM [2, 8]: 76.6%
activity at 10 µM [2, 9]: 98%
activity at 10 µM [2, 10]: 91.8%
activity at 100 µM [2, 7]: 54.3%
activity at 100 µM [2, 8]: 20.2%
activity at 100 µM [2, 9]: 18.5%
activity at 100 µM [2, 10]: 21.2%
minimal effective concentration ([2]; read-out: endo.mtl.18hr POD): 13.4 µM
minimal effective concentration ([2]; read-out: endo.tlps.18hr POD): 9.27 µM
minimal effective concentration ([2]; read-out: endo.tta.18hr POD): 29.9 µM
minimal effective concentration ([2]; read-out: endo.ttl.18hr POD): 23.1 µM
